Source: US11992491B2, “Crystalline salts of 5-methyl-(6S)-tetrahydrofolic acid and L-valine ethyl ester” (Merck Patent GmbH, priority 2018, dated 2024)

Tests used:
[1] = for kinetic solubility: 42.5 mg in 2.00 mL purified/de-ionized water, agitated at room temperature for one minute, filtered, gravimetric evaluation of residue
Description: (§1) 42.5 mg of the anhydrous form of the crystalline 5-methyl-(6S)-tetrahydrofolic acid L-valine ethyl ester salt (Form A) according to Example 2 was weighed into a 7 mL glass vial with a screw cap. 2.00 mL of purified/de-ionized water (for instance water for chromatography) was added to the solid using an adjustable volumetric pipette. The mixture was vigorously agitated at room temperature for one minute. […] The dilute suspension was filtered by centrifugal filtration and 1.50 mL of the aqueous solution was transferred into a tared glass vial (about 10 mL volume). The water was evaporated in an air dryer at 40° C. for about 15 hours, then at 50° C. for about eight hours, subsequently drying was completed at 50° C. under vacuum (10 to 20 mbar) for about 13 hours. The solubility was determined by gravimetric evaluation of the solid residue.
as §1, with “calcium” for “L-valine ethyl ester”, “salt” for “salt (Form A) according to Example 2”, “The” for “The dilute”

[2] = relative humidity range from 0 to 55%; RH scans 5% per hour
Excerpt: DVS measurements are typically performed with an SPS11-100n “Sorptions Prüfsystem” from ProUmid (formerly “Projekt Messtechnik”), August-Nagel-Str. 23, 89079 Ulm (Germany).
23, 89079 Ulm (Germany). For relative humidity (RH) scans, change rates of 5% per hour were used.

[3] = cited from earlier work; for aqueous solubility: at room temperature, known values for calcium salt polymorphs

Compound	kinetic solubility [1]	change of relative sample mass (DVS) [2]	aqueous solubility [3]	also measured
5-methyl-(6S)-tetrahydrofolic acid L-valine ethyl ester salt	12.5 mg of 5-methyl-(6S)-tetrahydrofolic acid per mL	less than 1%	–	improvement of kinetic solubility versus the known metastable Form 1 of the calcium salt ([1]; versus calcium salt Form 1): about 50%
5-methyl-(6S)-tetrahydrofolic acid calcium salt	9.0 mg of 5-methyl-(6S)-tetrahydrofolic acid per mL	about 6%	–	–
CN1c2c(nc(N)[nH]c2=O)NC[C@@H]1CNc1ccc(C(=O)N[C@@H](CCC(=O)O)C(=O)O)cc1 [5-methyl-(6S)-tetrahydrofolic acid]	–	–	–	solubility in water (in words) ([3]; water): poorly soluble
CN1c2c([nH]c(N)nc2=O)NC[C@@H]1CNc1ccc(C(=O)N[C@@H](CCC(=O)[O-])C(=O)[O-])cc1.[Ca+2] [calcium salt (Form Ill), calcium salt of 5-methyl-(6S)-tetrahydrofolic acid]	–	–	about 2.5 mg/ml	–
CN1c2c([nH]c(N)nc2=O)NC[C@@H]1CNc1ccc(C(=O)N[C@@H](CCC(=O)[O-])C(=O)[O-])cc1.[Ca+2] [metastable Form I, calcium salt of 5-methyl-(6S)-tetrahydrofolic acid]	–	–	about 10 mg/ml	–
